What was measured:
[1] = tested on: GC B cells and non-GC B cells in spleen cell cultures; assay: Mouse splenocyte flow cytometry immunology experiments; format: cell-based
Procedure: Male C57BL/6 mice were immunised in both flanks subcutaneously with CFA (100 μl of 4 mg/ml CFA). On day 8 the animals were terminated, spleens harvested and processed to single cell suspensions.
Splenocytes were resuspended in complete media (RPMI 1640+10% foetal calf serum, supplemented with 4 mM L-glutamine, 100 U/ml-100 μg/ml) penicillin/streptomycin and 50 μM B-mercaptoethanol (Gibco)). The cells were activated for 48 hours with 2 μg/ml αCD40 (ThermoFisher)+[…] IL-4 (Bio-techne) at 37° C. in a humidified CO2 incubator. Example 4b was added at the same time as activation in an 8-point dose titration. Following the culture period, cells were collected, washed with PBS (Gibco) and selected wells were counted using a LUNA™ Counter (Logos Biosystems).
Harvested cells were washed in PBS (Gibco) and stained with Invitrogen™ eBioscience™ Fixable Viability Dye eFluor 780 (Fisher scientific), then FcR blocked (Miltenyi Biotec) and stained with surface receptor antibodies (see Table 3 below). Cells were then washed in flow cytometry buffer (PBS supplemented with 1% BSA and 0.05% azide) and the secondary streptavidin was added. Cells were then washed, fixed and permeabilized in Transcription factor staining buffer (Fisher scientific); according to the manufacturer's instructions. Intracellular antibodies were then added to the samples. Following final washes, cells were fixed in 1% PFA and acquired on a BD LSR Fortessa™ (BD Bioscience). All analysis was carried out using FlowJo software v10.
In order to test the hypothesis that degradation or inhibition of Bcl6 may be able to modulate primary cells of the immune system, resulting in a decrease in their potential to generate autoantibodies, the above experiment was performed. Mice were immunised in order to drive the generation of germinal centre (GC) B cells. Spleens were then cultured in the presence or absence of a Bcl6 inhibitor (Example 4b) for 48 hours and non-GC B cells or GC B cells were identified using flow cytometry (FIG. 1).

[2] = biological target: T1, Trx-6×His-BCL6 (human BCL6 BTB domain covering amino-acid sequence 5-129) (Homo sapiens, UniProt P41182); assay: HTRF assay (BCL6 / BCOR peptide); format: binding; conditions: 1 nM Trx-6×His-BCL6, 300 nM BCOR-AF633 peptide, 2 hours incubation at room temperature; read-out: HTRF avg pIC50 (converted)
T1 construct: made in house
Procedure: After 2 hours incubation at room temperature the plate was read on a Pherastar FSX (BMG Labtech) plate reader equipped with 337 nm laser excitation filter, a first emission filter at 620 nm and a second emission filter at 665 nm. The % inhibition at each concentration was calculated by normalising FRET ratio to the appropriate high (DMSO with all reagents) and low (DMSO without BCL6) controls.

Compound	numbers of GC B cells as determined by expression of the lineage markers GL7 and CD95 ([1]; spleen cell cultures, 48 hours, at 10 μM (FIG. 4))	BCL6 expression in non-GC B cells (GeoMFI, flow cytometry) ([1]; splenocytes of CFA-immunised C57BL/6 mice, activated 48 hours with αCD40 + IL-4, various concentrations (FIG. 2))	Blimp expression by GC B cells (GeoMFI, flow cytometry) ([1]; splenocytes of CFA-immunised C57BL/6 mice, activated 48 hours with αCD40 + IL-4, various concentrations (FIG. 3))	IC50 [2] [nM]
Cn1c(=O)c2c(c3cc(Nc4ccnc(F)c4Cl)ccc31)N[C@@H](C1CC1)C(F)(F)CO2 [Example 4b, (S)-10-((3-chloro-2-fluoropyridin-4-yl)amino)-2-cyclopropyl-3,3-difluoro-7-methyl-1,2,3,4-tetrahydro-[1,4]oxazepino[2,3-c]quinolin-6(7H)-one]	decreased	did not result in a reduction	increase	6.31
Cn1c(=O)c2c(c3cc(Nc4nc(N5[C@@H]6COC[C@H]5C[C@@H](O)C6)ncc4F)ccc31)N[C@@H](C1CC1)C(F)(F)CO2 [Example 5a, (S)-2-cyclopropyl-3,3-difluoro-10-((5-fluoro-2-((1R,5S,7R)-7-hydroxy-3-oxa-9-azabicyclo[3.3.1]nonan-9-yl)pyrimidin-4-yl)amino)-7-methyl-1,2,3,4-tetrahydro-[1,4]oxazepino[2,3-c]quinolin-6(7H)-one]				1.51

Source: patent US12528826B2, “[1,4]oxazepino[2,3-c]quinolinone derivatives as BCL6 inhibitors” (Cancer Research Technology Limited, priority 2019, dated 2026)
